Measurements from US8361740B2, “Peptide standards” (King's College London, priority 2007, dated 2013).
Non-standard residues stand in square brackets, D forms with d. No end group written: not given here. K∗ = stable isotope labelled lysine

System: trypsin
Assay: Tryptic digestion of peptide standards, released T6 peptide (LVNEVTEFAK) measured by LC-MSMS (MRM)
Format: biochemical
Conditions: for IS Peak Area (counts): LVNEVTEFAK* signal, internal std + digested peptide 8; for Analyte Peak Area (counts): trypsin 37° C. 30 min
Description: The first experiment was test the hypothesis that the LVNEVTEFAKT (SEQ ID NO:7) peptide is cleaved to LVNEVTEFAK (SEQ ID NO:10) by trypsin as efficiently as the longer peptides. Using LVNEVTEFAK* (SEQ ID NO:10) as the internal standard peptides (1-5, and 8) were digested using standard protocol. […] This implies that any internal standard peptide where cysteine is the N-terminal amino acid will require the next amino acid in addition to be effective.
Experiment to Determine Number of Amino Acids Required Following Trypsin Digest Site for Digestion.
Assay 50 μl peptide 1-6 & 8 (blank was deionised water)+50 μl internal std Add 10 μl acetonitrile & 10 μl 1% formic acid, vortex mix, and stand for 5 min Add 6 μl […] ammonium bicarbonate & 5 μl trypsin (5 mg/l), vortex mix, and pulse centrifuge (6 sec) Incubate at 37° C. for 30 min & add 500 μl HPLC solvent (acetonitrile:water 1:1 with 0.025% formic acid) Vortex mix and transfer to 96-deep well polypropylene plate Sample volume, 5 μl; flow rate, 500 μl/min Chromatography—teicoplanin guard column MSMS parameters—generic peptide ionisation and doubly charged ion fragmentation T6 doubly charged ion m/z 575.4 and internal std m/z 579.4 Product ions (m/z): 937.4, 823.4, 694.4—internal std (m/z): 945.4, 831.4, 702.4 (150 ms/MRM) Results

Substance: LVNEVTEFAK*T (LVNEVTEFA[K∗]T) [peptide 8]
- signal for LVNEVTEFAK after tryptic digestion (3 different MRMs, LVNEVTEFAK* as internal standard): no signal
- LVNEVTEFAK* signal after tryptic digestion (LVNEVTEFAK* as internal standard): increased by the expected amount
- Internal standard area Ratio (IS + peptide 8 / Mean (Blank, 1-6)) (T6 694): 1.87
- IS Peak Area (counts) (T6 694 transition): 238000 counts
- Internal standard area Ratio (IS + peptide 8 / Mean (Blank, 1-6)) (T6 823): 1.80
- IS Peak Area (counts) (T6 823 transition): 83000 counts
- Internal standard area Ratio (IS + peptide 8 / Mean (Blank, 1-6)) (T6 937): 1.91
- IS Peak Area (counts) (T6 937 transition): 253000 counts
- Analyte Peak Area (counts) (analyte T6 694 (m/z 575.4/694.4)): 149 counts
- Area Ratio (analyte T6 694 / internal std LVNEVTEFAK*): 0.00062
- Analyte Peak Area (counts) (analyte T6 823 (m/z 575.4/823.4)): 62 counts
- Area Ratio (analyte T6 823 / internal std LVNEVTEFAK*): 0.00074
- Analyte Peak Area (counts) (analyte T6 937 (m/z 575.4/937.4)): 147 counts
- Area Ratio (analyte T6 937 / internal std LVNEVTEFAK*): 0.00058
- recovery after tryptic digestion (within the limits of the experiment): full recovery
